{"source": "patent US7838495B2", "about": "“Compositions and methods of use of EPB1, and ErbB3 binding protein” (University of Maryland, Baltimore, priority 2007, dated 2010)", "key": {"AR": {"target": "AR (Homo sapiens, UniProt P10275, T878A)", "sequence (P10275 whole entry T878A)": "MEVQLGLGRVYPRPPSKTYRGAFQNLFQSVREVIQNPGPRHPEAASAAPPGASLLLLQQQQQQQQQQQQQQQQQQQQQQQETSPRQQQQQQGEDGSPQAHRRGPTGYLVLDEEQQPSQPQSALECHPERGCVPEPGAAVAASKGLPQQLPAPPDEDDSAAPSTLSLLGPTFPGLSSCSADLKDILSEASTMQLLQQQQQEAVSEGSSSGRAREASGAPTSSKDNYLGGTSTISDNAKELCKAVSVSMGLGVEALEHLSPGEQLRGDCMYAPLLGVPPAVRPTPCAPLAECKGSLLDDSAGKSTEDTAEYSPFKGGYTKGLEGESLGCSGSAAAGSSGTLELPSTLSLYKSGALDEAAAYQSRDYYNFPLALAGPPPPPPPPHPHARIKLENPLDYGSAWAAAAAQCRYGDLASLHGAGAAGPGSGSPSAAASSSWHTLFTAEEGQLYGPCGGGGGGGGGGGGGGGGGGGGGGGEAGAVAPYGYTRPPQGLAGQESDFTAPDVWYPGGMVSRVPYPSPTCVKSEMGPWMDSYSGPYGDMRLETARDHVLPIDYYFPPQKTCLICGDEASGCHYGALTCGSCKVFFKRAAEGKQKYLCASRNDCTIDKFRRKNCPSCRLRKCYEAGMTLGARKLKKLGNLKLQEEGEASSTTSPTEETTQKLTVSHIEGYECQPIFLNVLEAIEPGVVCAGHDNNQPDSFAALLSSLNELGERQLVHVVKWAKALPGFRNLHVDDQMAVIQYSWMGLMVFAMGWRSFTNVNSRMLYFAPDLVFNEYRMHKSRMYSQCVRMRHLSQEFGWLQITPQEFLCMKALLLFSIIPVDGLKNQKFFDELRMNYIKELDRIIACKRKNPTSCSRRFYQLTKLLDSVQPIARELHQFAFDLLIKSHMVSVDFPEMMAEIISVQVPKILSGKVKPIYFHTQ", "description": "Luciferase Reporter Assays: Vector control or EBP1-transfected LNCaP (5×10^4) cells were plated in twelve-well plates in complete media. When cells reached 50-60% confluence, they were transfected with 0.5 μg of MMTV-luc using the Fugene-6 reagent (Roche). Cells were also transfected with the RL-TK vector as an internal control. […] Luciferase activity was determined as previously described using a Dual-Luciferase kit (Promega, Madison, Wis.). The activities of renilla luciferase were used to normalize any variations in transfection efficiency. The promoter activities of each plasmid construct were calculated as the firefly-renilla luciferase activity ratios. All transfection experiments were carried out in triplicate wells and repeated three times."}, "[1]": {"tested_on": "AR regulated MMTV promoter", "experiment": "MMTV-luciferase reporter response to R1881 in A16 and C13 cells", "format": "cell-based, human", "settings": "EBP1 knock out cells vs A16, R1881 10^-8 M, p<0.05", "description": "FIG. 7A-C. Suppression of EBP1 by shRNA promotes a hormone refractory phenotype A. Western blot analysis of Ebp1. Lysates of LNCaP cells stably transduced with a control lentivirus (A16) or an EBP1 targeted shRNA (13C) were collected and resolved by SDS-PAGE. Western blots were probed for endogenous EBP1 or ACTIN as indicated. B. Inhibition of EBP1 expression abrogates the ability of HRG to arrest growth (Left panel) Control and shRNA EBP1 targeted cells were plated in complete media at […] for one day. The next day, cells were switched to steroid reduced-media and HRG added at the indicated concentrations. Total cell numbers were determined seven days later by MTT assay. Each point represents mean±S.E. of 6 wells. Data is representative of three experiments. (Right Panel) AKT phosphorylation in EBP1 knock out cells Control (A16) or EBP 1 knock out cells (C13) were treated with HRG (20 ng/ml) for 15 mm and cell lysates assessed for the presence of phospho and total AKT as indicated. C. […] Sixteen hours later, luciferase activity was measured. […] Lysates of logarithmically growing A16 and C13 cells were resolved by SDS-PAGE and analyzed by Western blotting using antibodies to AGR2 and ACTIN as indicated. […] The viability of the cells was determined by MTT assays 5 days later. […]"}}}
{"smiles": "C[C@]1(O)CC[C@H]2[C@@H]3CCC4=CC(=O)CCC4=C3C=C[C@@]21C", "note": "[R1881]", "values": [{"measurement": "AR activation (MMTV-luc)", "setting": "AR; LNCaP EPB1 transfectants", "value": "neither R1881 nor cyproterone acetate nor the combination thereof stimulated AR activation"}, {"measurement": "activation of MMTV-luc luciferase activity", "setting": "AR; LNCaP vector controls, 10^-8 M", "value": 20, "unit": "fold"}, {"measurement": "transcriptional response of AR regulated MMTV promoter to R1881", "setting": "[1]", "value": "enhanced"}]}
